In patent publication US10987359B2, “Oxadiazepinone derivatives and methods of treating hepatitis B infections” (priority 2016, dated 2021):

What follows are compounds tested on HBV (assay: HBV replication inhibition assay (BDNA assay) in HepG2.2.15 cells). Conditions: HBV replication assay (BDNA assay), HepG2.2.15 cells; read-out: DNA EC50.
Assay type: cell-based
Experimental: HBV replication inhibition by the disclosed compounds were determined in cells infected or transfected with HBV or cells with stably integrated HBV, such as HepG2.2.15 cells (Sells et al. 1987). In this example, HepG2.2.15 cells were maintained in cell culture medium containing 10% fetal bovine serum (FBS), Geneticin, L-glutamine, penicillin and streptomycin. HepG2.2.15 cells were seeded in 96-well plates at a density of 40,000 cells/well and were treated with serially diluted compounds at a final DMSO concentration of 0.5% either alone or in combination by adding drugs in a checker box format. Cells were incubated with compounds for three days, after which medium was removed and fresh medium containing compounds was added to cells and incubated for another three days. At day 6, supernatant was removed and treated with DNase at 37° C. for 60 minutes, followed by enzyme inactivation at 75° C. for 15 minutes. Encapsidated HBV DNA was released from the virions and covalently linked HBV polymerase by incubating in lysis buffer (Affymetrix QS0010) containing 2.5 μg proteinase K at 50° C. for 40 minutes. HBV DNA was denatured by addition of 0.2 M NaOH and detected using a branched DNA (BDNA) QuantiGene assay kit according to manufacturer recommendation (Affymetrix). HBV DNA levels were also quantified using qPCR, based on amplification of encapsidated HBV DNA extraction with QuickExtraction Solution (Epicentre Biotechnologies) and amplification of HBV DNA using HBV specific PCR probes that can hybridize to HBV DNA and a fluorescently labeled probe for quantitation. In addition, cell viability of HepG2.2.15 cells incubated with test compounds alone or in combination was determined by using CellTitre-Glo reagent according to the manufacturer protocol (Promega). The mean background signal from wells containing only culture medium was subtracted from all other samples, and percent inhibition at each compound concentration was calculated by normalizing to signals from HepG2.2.15 cells treated with 0.5% DMSO using equation E1. % inhibition=(DMSOave−Xi)/DMSOave×100% E1: […]
where DMSOave is the mean signal calculated from the wells that were treated with DMSO control (0% inhibition control) and Xi is the signal measured from the individual wells. EC50 values, effective concentrations that achieved 50% inhibitory effect, were determined by non-linear fitting using Graphpad Prism software (San Diego, Calif.) and equation E2: Y=Y min+(Y max−Y min)/(1+10(Log EC50−X)×HillSlope) E2: […]
where Y represents percent inhibition values and X represents the logarithm of compound concentrations.
Selected disclosed compounds were assayed in the HBV replication assay (BDNA assay), as described above, and a representative group of these active compounds is shown in Table 7. […] In Table 7, “A” represents 1<EC50≤100; “B” represents 100<EC50≤500; “C” represents 500<EC50≤1000; and “D” represents EC50>1000.

Compound | EC50 [nM]
CCN1OC(CO)Cn2nc3c(c2C1=O)CN(C(=O)Nc1ccc(F)c(Cl)c1)CC3 (single isomer, unassigned) [Compound 060_E2, (R*)—N-(3-chloro-4-fluorophenyl)-2-ethyl-4-(hydroxymethyl)-1-oxo-1,4,5,8,9,11-hexahydropyrido[4′,3′:3,4]pyrazolo[5,1-d][1,2,5]oxadiazepine-10(2H)-carboxamide] | 1 to 100
Cc1cc(NC(=O)N2Cc3c(nn4c3C(=O)N(C)OC(CO)C4)C[C@H]2C)ccc1F (single isomer, unassigned) [Compound 083_E2, (4R*,9R)—N-(4-fluoro-3-methylphenyl)-4-(hydroxymethyl)-2,9-dimethyl-1-oxo-1,4,5,8,9,11-hexahydropyrido[4′,3′:3,4]pyrazolo [5,1-d][1,2,5]oxadiazepine-10(2H)-carboxamide] | 1 to 100
C[C@@H]1Cc2nn3c(c2CN1C(=O)Nc1ccc(F)c(Cl)c1)C(=O)N(C)OC(CF)C3 (single isomer, unassigned) [Compound 088_E2, (4R*,9R)—N-(3-chloro-4-fluorophenyl)-4-(fluoromethyl)-2,9-dimethyl-1-oxo-1,4,5,8,9,11-hexahydropyrido[4′,3′:3,4]pyrazolo[5,1-d][1,2,5]oxadiazepine-10(2H)-carboxamide] | 1 to 100
C[C@@H]1Cc2nn3c(c2CN1C(=O)Nc1ccc(F)c(Br)c1F)C(=O)N(C)OC(CO)C3 (single isomer, unassigned) [Compound 092_E2, (4R*,9R)—N-(3-bromo-2,4-difluorophenyl)-4-(hydroxymethyl)-2,9-dimethyl-1-oxo-1,4,5,8,9,11-hexahydropyrido[4′,3′:3,4]pyrazolo[5,1-d][1,2,5]oxadiazepine-10(2H)-carboxamide] | 1 to 100
C[C@@H]1Cc2nn3c(c2CN1C(=O)Nc1cc(Br)c(F)cc1F)C(=O)N(C)OC(COCC(F)F)C3 (single isomer, unassigned) [Compound 108_D1, (4S*,9R)—N-(5-bromo-2,4-difluorophenyl)-4-((2,2-difluoroethoxy)methyl)-2,9-dimethyl-1-oxo-1,4,5,8,9,11-hexahydropyrido[4′,3′:3,4]pyrazolo[5,1-d][1,2,5]oxadiazepine-10(2H)-carboxamide] | 100 to 500
C[C@@H]1Cc2nn3c(c2CN1C(=O)Nc1cc(Br)c(F)cc1F)C(=O)N(C)OC(COCC(F)F)C3 (single isomer, unassigned) [Compound 108_D2, (4R*,9R)—N-(5-bromo-2,4-difluorophenyl)-4-((2,2-difluoroethoxy)methyl)-2,9-dimethyl-1-oxo-1,4,5,8,9,11-hexahydropyrido[4′,3′:3,4]pyrazolo[5,1-d][1,2,5]oxadiazepine-10(2H)-carboxamide] | 1 to 100
CNC(=O)C1Cn2nc3c(c2C(=O)N(C)O1)CN(C(=O)Nc1ccc(F)c(Cl)c1F)[C@H](C)C3 (single isomer, unassigned) [Compound 110_D1, (4S*,9R)—N10-(3-chloro-2,4-difluorophenyl)-N4,2,9-trimethyl-1-oxo-1,4,5,8,9,11-hexahydropyrido[4′,3′:3,4]pyrazolo[5,1-d][1,2,5]oxadiazepine-4,10(2H)-dicarboxamide] | 500 to 1000
CNC(=O)C1Cn2nc3c(c2C(=O)N(C)O1)CN(C(=O)Nc1ccc(F)c(Cl)c1F)[C@H](C)C3 (single isomer, unassigned) [Compound 110_D2, (4R*,9R)—N10-(3-chloro-2,4-difluorophenyl)-N4,2,9-trimethyl-1-oxo-1,4,5,8,9,11-hexahydropyrido[4′,3′:3,4]pyrazolo[5,1-d][1,2,5]oxadiazepine-4,10(2H)-dicarboxamide] | 1 to 100

Same assay, conditions: Hepatitis B virus, HepG2.2.15, HBV replication assay (BDNA assay), HepG2.2.15 cells; read-out: DNA EC50

Compound | EC50 [nM]
Cc1cc(NC(=O)N2Cc3c(nn4c3C(=O)N(C)OC(CO)C4)C[C@H]2C)ccc1F (single isomer, unassigned) [Compound 083_E1, (4S*,9R)—N-(4-fluoro-3-methylphenyl)-4-(hydroxymethyl)-2,9-dimethyl-1-oxo-1,4,5,8,9,11-hexahydropyrido[4′,3′:3,4]pyrazolo[5,1-d][1,2,5]oxadiazepine-10(2H)-carboxamide] | 1 to 100
C[C@@H]1Cc2nn3c(c2CN1C(=O)Nc1ccc(F)c(Cl)c1)C(=O)N(C)OC(CF)C3 (single isomer, unassigned) [Compound 088_E1, (4S*,9R)—N-(3-chloro-4-fluorophenyl)-4-(fluoromethyl)-2,9-dimethyl-1-oxo-1,4,5,8,9,11-hexahydropyrido[4′,3′:3,4]pyrazolo[5,1-d][1,2,5]oxadiazepine-10(2H)-carboxamide] | 1 to 100
C[C@@H]1Cc2nn3c(c2CN1C(=O)Nc1ccc(F)c(Br)c1F)C(=O)N(C)OC(CO)C3 (single isomer, unassigned) [Compound 092_E1, (4S*,9R)—N-(3-bromo-2,4-difluorophenyl)-4-(hydroxymethyl)-2,9-dimethyl-1-oxo-1,4,5,8,9,11-hexahydropyrido[4′,3′:3,4]pyrazolo[5,1-d][1,2,5]oxadiazepine-10(2H)-carboxamide] | 1 to 100
C[C@@H]1Cc2nn3c(c2CN1C(=O)Nc1ccc(F)c(Cl)c1)C(=O)N(C)OC(CN(C)C)C3 (single isomer, unassigned) [Compound 093_D1, (4S*,9R)—N-(3-chloro-4-fluorophenyl)-4-((dimethylamino)methyl)-2,9-dimethyl-1-oxo-1,4,5,8,9,11-hexahydropyrido[4′,3′:3,4]pyrazolo[5,1-d][1,2,5]oxadiazepine-10(2H)-carboxamide] | 1 to 100
C[C@@H]1Cc2nn3c(c2CN1C(=O)Nc1ccc(F)c(C#N)c1)C(=O)N(C)OC(CN)C3 (single isomer, unassigned) [Compound 115_D1, (4S*,9R)-4-(aminomethyl)-N-(3-cyano-4-fluorophenyl)-2,9-dimethyl-1-oxo-1,4,5,8,9,11-hexahydropyrido[4′,3′:3,4]pyrazolo[5,1-d][1,2,5]oxadiazepine-10(2H)-carboxamide] | 1 to 100
C[C@@H]1Cc2nn3c(c2CN1C(=O)Nc1ccc(F)c(Cl)c1)C(=O)N(C)OC(COCC(F)F)C3 (single isomer, unassigned) [Compound 121_D1, (4S*,9R)—N-(3-chloro-4-fluorophenyl)-4-((2,2-difluoroethoxy)methyl)-2,9-dimethyl-1-oxo-1,4,5,8,9,11-hexahydropyrido[4′,3′:3,4]pyrazolo[5,1-d][1,2,5]oxadiazepine-10(2H)-carboxamide] | 1 to 100
CN1OC(CO)Cn2nc3c(c2C1=O)CN(C(=O)Nc1cc(F)c(F)c(Cl)c1F)CC3 (single isomer, unassigned) [Compound 137_E1, (S*)—N-(3-chloro-2,4,5-trifluorophenyl)-4-(hydroxymethyl)-2-methyl-1-oxo-1,4,5,8,9,11-hexahydropyrido[4′,3′:3,4]pyrazolo[5,1-d][1,2,5]oxadiazepine-10(2H)-carboxamide] | 1 to 100
CN1OC(CO)Cn2nc3c(c2C1=O)CN(C(=O)Nc1c(F)ccc(Cl)c1F)CC3 (single isomer, unassigned) [Compound 138_E1, (S*)—N-(3-chloro-2,6-difluorophenyl)-4-(hydroxymethyl)-2-methyl-1-oxo-1,4,5,8,9,11-hexahydropyrido[4′,3′:3,4]pyrazolo[5,1-d][1,2,5]oxadiazepine-10(2H)-carboxamide] | 100 to 500
CN1OC(CO)Cn2nc3c(c2C1=O)CN(C(=O)Nc1cc(Cl)ccc1F)CC3 (single isomer, unassigned) [Compound 139_E1, (S*)—N-(5-chloro-2-fluorophenyl)-4-(hydroxymethyl)-2-methyl-1-oxo-1,4,5,8,9,11-hexahydropyrido[4′,3′:3,4]pyrazolo[5,1-d][1,2,5]oxadiazepine-10(2H)-carboxamide] | 1 to 100
CN1OC(CO)Cn2nc3c(c2C1=O)CN(C(=O)Nc1cc(Br)cc(F)c1F)CC3 (single isomer, unassigned) [Compound 140_E1, (S*)—N-(5-bromo-2,3-difluorophenyl)-4-(hydroxymethyl)-2-methyl-1-oxo-1,4,5,8,9,11-hexahydropyrido[4′,3′:3,4]pyrazolo[5,1-d][1,2,5]oxadiazepine-10(2H)-carboxamide] | 1 to 100
CN1OC(CO)Cn2nc3c(c2C1=O)CN(C(=O)Nc1cc(Br)ccc1F)CC3 (single isomer, unassigned) [Compound 141_E1, (S*)—N-(5-bromo-2-fluorophenyl)-4-(hydroxymethyl)-2-methyl-1-oxo-1,4,5,8,9,11-hexahydropyrido[4′,3′:3,4]pyrazolo[5,1-d][1,2,5]oxadiazepine-10(2H)-carboxamide] | 1 to 100
